# According to US9789101B2, “Methods and compositions for treating microbial infection using pyrroloquinone” (HELPERBY THERAPEUTICS LIMITED, priority 2010, dated 2017):
# Where a name gives a salt, the structure may show the parent alone.
# System: stationary phase Staphylococcus aureus
# Assay: In vitro efficacy test against stationary phase Staphylococcus aureus (CFU counts)
# Type: cell-based, Staphylococcus aureus (Oxford)
# Description: Staphylococcus aureus (Oxford); Gram positive; Reference strain.
# Stationary phase growth of methicilin sensitive Staphylococcus aureus (MSSA) was carried out as follows:
# Subculture of the bacterial strains on agar plates: Overnight S. aureus bacterial cultures were stored at −70° C. with 20% glycerol (cryoprotectant). A loopful of the frozen cells was streaked on a blood agar plate which was incubated at 37° C. overnight (or longer) as culture plate A. A single colony of each strain from the culture plate A was streaked on the blood agar plate which was incubated at 37° C. overnight (or longer) as culture plate B. The culture plate B was stored at 4° C. for a week and served as the initial inoculation plate.
# Bacterial growth in broth culture: A single colony from culture plate B was inoculated in 10 ml of nutrient broth (No. 2, (Oxoid)), which was incubated overnight at 37° C. with continuous shaking at 120 rpm. 200 μl of the overnight culture was added into a 500 ml bottle containing 100 ml of nutrient broth. The 100 ml culture was incubated at 37° C. with continuous shaking for 6 to 7 days. Viability of the cultures is estimated by colony forming unit (CFU) counts at 2 hour intervals for the first 24 hours and 12 to 24 hours afterwards.
# Colony Forming Unit (CFU) counts were performed as follows: From serial 10-fold dilutions of the cultures, 100 μl samples were added to one third of blood agar plates (Oxoid) in triplicate. CFUs were counted using an aCoLyte colony counter (Synbiosis) after incubation of the plates at 37° C. for 24 hours or longer.
# 7 day old stationary phase cultures were used. The stationary phase cultures were diluted to obtain CFU counts in the cell suspension of 10^6 to 10^7 CFU/ml. The cell suspension was used to test drug sensitivity.
# HT61 was dissolved in DMSO to the stock concentration of 10 mg/ml.
# HT00800059 was dissolved in H2O to the stock solution 10 mg/ml
# The drugs were first diluted as follows: • 7.2 μl of HT61 at 10 mg/ml was added into 292.8 μl of H2O followed by diluting 2 fold, 3 times. • 57.6 μl of HT00800059 at 10 mg/ml was added into 242.4 μl of H2O followed by diluting 2 fold, 2 times. • 10 μl of HT00800059 from each dilution was added into the wells of a 96 well plate followed by the addition of 290 μl of bacterial cell suspension to make the final concentrations of HT00800059 at 64, 32 and 0 μg/ml. • […]
# In combination of two drugs: 10 μl of HT61 from each dilution was added into the wells of a 96 well plate followed by the addition of 10 μl of HT00800059 from each dilution. […]
smiles,measurement,setting,value
"CCCCOc1ccc(C(=O)CCN2CCCCC2)cc1 [HT00800059, dyclonine (1-(4-Butoxyphenyl)-3-(1-piperidinyl)-1-propanone) hydrochloride]",CFU killed,"32 μg/ml, over 8 hours",about 10^4 CFU
same,CFU killed,"64 μg/ml, over 6 hours",about 10^7 CFU
